Several values for one entry are separate records, joined by “and”; a condition that tells them apart may be missing. Equal entries are not always repeated. Where two headings read alike, the source gives them in different places.
Assays:
[1] = rats, intravenous injection of 25 (2 mg∙kg^−1)
[2] = test system: JFH1-2a virus (wild type); assay: HCV virus assay, JFH1-2a wild type, Huh 7.5.1 cells; conditions: Hepatitis C virus
in vivo = conditions: male, SD, rat, iv, i.v. 2 mg 25/kg; for AUC(0-inf): AUC0-∞
JFH1-2a (S282T) virus = assay: HCV virus assay, mutant JFH1-2a (S282T) virus strain; format: cell-based; conditions: Hepatitis C virus, read-out: Anti-HCV Activity (Virus Assay) EC50 ± SD JFH1-2a (S282T)
HCV JFH1-2a replicon = assay: HCV JFH1-2a subgenomic replicon assay (Renilla luciferase, Huh 7.5.1 replicon cells); format: cell-based; conditions: Hepatitis C virus, Table 4, read-out: Anti-HCV Activity EC50 ± SD Replicon Assay JFH1-2a
CypA = CypA (Homo sapiens, UniProt P62937); assay: CypA enzyme inhibition assay (chymotrypsin-coupled PPIase assay); format: biochemical; conditions: mean ± SD of five independent experiments
Protocol: The PPIase activity of CypA was conducted in a coupled assay with chymotrypsin using the synthetic tetrapeptide N-succinyl-Ala-Ala-Pro-Phe-p-nitroanilide (Sigma, Shanghai, China) as described in [34] with small modifications. The assay buffer (20 mM Tris-HCl, 50 mM NaCl, pH 7.8) and CypA were precooled at 4 °C and mixed with 0.4 mg∙mL^−1 chymotrypsin (20 mg∙mL^−1 in 1 mM HCl). The reaction was initiated by adding peptide substrate (2 mg∙mL^−1 in 500 mM LiCl in tetrahydrofuran (THF)). […] Absorbance readings were collected every 0.1 s and the temperature was controlled at 4 °C during the assay. The progress curves were analyzed by nonlinear least-squares fit. The inhibition assays of compounds were performed in the same manner as above-mentioned. […] of test compounds in DMSO, at various concentrations, was added to the CypA solution in the assay buffer. After being preincubated for 1 h at 4 °C, the assay was started by the addition of chymotrypsin and the substrate. To calculate the half-maximal inhibitory concentration (IC50), a percent of the remaining PPIase activity was plotted against the common logarithm of the compound concentration, and the data were fitted using the sigmoidal fitting model of Origin 7.0 software.

HCV Con1-1b replicon = assay: HCV Con1-1b subgenomic replicon assay; format: cell-based; conditions: Hepatitis C virus; Table 4; read-out: Anti-HCV Activity EC50 ± SD Replicon Assay Con1-1b
[3] = PBS pH 7.4, 37 °C
HCV H77-1a replicon = assay: HCV H77-1a subgenomic replicon assay; format: cell-based; conditions: Hepatitis C virus; Table 4; read-out: Anti-HCV Activity EC50 ± SD Replicon Assay H77-1a
[4] = SD rats, Mean ± SD (Rat 1 and 3)

Chain of CypA (P62937 whole entry): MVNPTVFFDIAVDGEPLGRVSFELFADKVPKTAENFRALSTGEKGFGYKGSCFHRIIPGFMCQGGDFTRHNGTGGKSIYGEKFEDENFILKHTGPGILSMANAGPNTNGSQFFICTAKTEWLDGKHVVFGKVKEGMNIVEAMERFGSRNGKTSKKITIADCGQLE

CCCCCCCC(=O)Oc1cccc(O)c1C(=O)NC(=O)NC1c2ccccc2-c2ccccc21 [Compound 25, 1-(2-Hydroxy-6-n-Octanoyloxybenzoyl)-3-(9H-fluoren-9-yl)-urea]
plasma concentration after 5 min (mean ± SD) [1]: 20.47 ± 9.99 ng/mL
EC50 ([2]; Huh-7.5.1, read-out: Anti-HCV Activity (Virus Assay) EC50 ± SD JFH1-2a (Wild Type)): 270 ± 90 nM
EC50 ([2]; Huh-7.5.1, read-out: Anti-HCV Activity EC50 ± SD Virus Assay JFH1-2a): 190 ± 80 nM
AUC(0-inf) (in vivo; SD rat, Rat 1): 5.66 ng·h/mL
AUC(0-inf) (in vivo; SD rat, Rat 3): 5.3 ng·h/mL
AUC(0-inf) (in vivo; [4]): 5.48 ± 0.25 ng·h/mL
Cmax (in vivo; SD rat, Rat 1): 13.4 ng/mL
Cmax (in vivo; SD rat, Rat 3): 27.5 ng/mL
Cmax (in vivo; [4]): 20.5 ± 9.99 ng/mL
MRT (in vivo; SD rat, Rat 1): 2.42 h
MRT (in vivo; SD rat, Rat 3): 0.21 h
MRT (in vivo; [4]): 1.3 ± 1.6 h
half-life (in vivo; t1/2, SD rat, Rat 1): 324 min
half-life (in vivo; t1/2, SD rat, Rat 3): 7.2 min
half-life (in vivo; t1/2, SD rats, Mean ± SD (Rat 1 and 3)): 166 ± 224 min
EC50 (JFH1-2a (S282T) virus): 290 ± 70 nM
EC50 (HCV JFH1-2a replicon): 450 ± 80 nM
IC50 (CypA): > 5 µM
EC50 (HCV Con1-1b replicon): 810 ± 240 nM
melting point: 184 to 189 °C
25 Content ([3]; 0 h): 100%
25 Content ([3]; 0.5 h): 99.79%
25 Content ([3]; 1.0 h): 100.13%
25 Content ([3]; 1.5 h): 99.76%
25 Content ([3]; 2.0 h): 100.72%
25 Content ([3]; 3.0 h): 100.67%
25 Content ([3]; 3.5 h): 100.93%
25 Content ([3]; 4.0 h): 100.74%
25 Content ([3]; 5.0 h): 100.21%
25 Content ([3]; 6.0 h): 100.24%
25 Content ([3]; 7.0 h): 100.34%
25 Content ([3]; 8.0 h): 100.30%
25 Content ([3]; 9.0 h): 99.29%
25 Content ([3]; 10.0 h): 98.88%
25 Content ([3]; 11.0 h): 98.43%
25 Content ([3]; 12.0 h): 98.65% and 98.6%
EC50 (HCV H77-1a replicon): 850 ± 210 nM
